Measured values reported in patent US7368422B2, “Semi-synthetic rearranged vancomycin/desmethyl-vancomycin-based glycopeptides with antibiotic activity” (Novartis Vaccines and Diagnostics Inc., priority 2005, dated 2008).
Values after ≈ are worked out from the molar mass of the structure shown.

Experiments:
Assay type in all cases: cell-based
[1] = tested on: methicillin-susceptible Staphylococus aureus (MSSA); assay: MIC, NCCLS microdilution broth procedure, MSSA
Description: (§1) The following table identifies specific species of compounds according to the present invention and information concerning their associated antibacterial activity. The antibacterial activity of a compound in accordance with the present invention, chloro-biphenyl-rearranged norvacomycin (B), was tested and compared to unmodified vancomycin (Van) and norvancoycin (Nor). MIC (minimum inhibitory concentration) was measured according to NCCLS standards using the microdilution broth prodcedure. Serial dilutions of the compounds were placed in a 96-well microplate containing Mueller-Hinton medium. Based on absorbance of 600 nm, diluted overnight cultures were placed in the wells at a final concentration of 5×10^5 cfu/mL. The plate was then placed in a culture box at 35° C. The next day, MIC was determined by visual observation of the plates. The glycopeptides were tested against a variety of strains well known in the art for such testing, including methicillin-susceptible Staphylococus aureus (MSSA), methicillin-susceptible Staphylococus epidermidis (MSSE), methicillin-resistant Staphylococus aureus (MRSA), methicllin-resistant Staphylococus epidermidis (MRSE), and glycopeptide-intermediate Staphylococus aureus (GISA). Results are shown in the Table 1 as minimum inhibitory concentration (MIC) in units of μg/ml: […]

[2] = tested on: methicillin-resistant Staphylococus aureus (MRSA); assay: MIC, NCCLS microdilution broth procedure, MRSA
Description: as §1

[3] = tested on: methicillin-susceptible Staphylococus epidermidis (MSSE); assay: MIC, NCCLS microdilution broth procedure, MSSE
Description: as §1

[4] = tested on: methicllin-resistant Staphylococus epidermidis (MRSE); assay: MIC, NCCLS microdilution broth procedure, MRSE
Description: as §1

[5] = tested on: glycopeptide-intermediate Staphylococus aureus (GISA) (V); assay: MIC, NCCLS microdilution broth procedure, GISA (V)
Description: as §1

[6] = tested on: glycopeptide-intermediate Staphylococus aureus (GISA) (D); assay: MIC, NCCLS microdilution broth procedure, GISA (D)
Description: as §1

Row | Compound | minimum inhibitory concentration (MIC) ([1]; MSSA strain # 68) [µg/mL] | minimum inhibitory concentration (MIC) ([1]; MSSA strain # 83) [µg/mL] | minimum inhibitory concentration (MIC) ([2]; MRSA strain # 134) [µg/mL] | minimum inhibitory concentration (MIC) ([2]; MRSA strain # 143) [µg/mL] | minimum inhibitory concentration (MIC) ([3]; MSSE strain # 3) [µg/mL] | minimum inhibitory concentration (MIC) ([3]; MSSE strain # 10) [µg/mL] | minimum inhibitory concentration (MIC) ([4]; MRSE strain # 24) [µg/mL] | minimum inhibitory concentration (MIC) ([4]; MRSE strain # 25) [µg/mL] | minimum inhibitory concentration (MIC) ([4]; MRSE strain # 26) [µg/mL] | minimum inhibitory concentration (MIC) ([5]; GISA (V) strain # 68) [µg/mL] | minimum inhibitory concentration (MIC) ([5]; GISA (V) strain # 143) [µg/mL] | minimum inhibitory concentration (MIC) ([6]; GISA (D) strain # 68) [µg/mL] | minimum inhibitory concentration (MIC) ([6]; GISA (D) strain # 143) [µg/mL]
1 | CC(C)C[C@@H](N)C(=O)N[C@H]1C(=O)N[C@@H](CC(N)=O)C(=O)N[C@H]2C(=O)N[C@H]3C(=O)N[C@H](C(=O)N[C@H](C(=O)O)c4cc(O)cc(O)c4-c4cc3ccc4O)[C@H](O)c3ccc(c(Cl)c3)Oc3cc2cc(c3O[C@@H]2O[C@H](CO)[C@@H](O)[C@H](O)[C@H]2O[C@H]2C[C@](C)(N)[C@H](O)[C@H](C)O2)Oc2ccc(cc2Cl)[C@H]1O [Nor, norvancoycin] | 2 (≈ 1.39 µM) | 2 (≈ 1.39 µM) | 2 (≈ 1.39 µM) | 2 (≈ 1.39 µM) | 2 (≈ 1.39 µM) | 2 (≈ 1.39 µM) | 2 (≈ 1.39 µM) | 2 (≈ 1.39 µM) | 2 (≈ 1.39 µM) | 4 (≈ 2.79 µM) | 8 (≈ 5.57 µM) | 4 (≈ 2.79 µM) | 4 (≈ 2.79 µM)
2 | CN[C@H](CC(C)C)C(=O)N[C@H]1C(=O)N[C@@H](CC(N)=O)C(=O)N[C@H]2C(=O)N[C@H]3C(=O)N[C@H](C(=O)N[C@H](C(=O)O)c4cc(O)cc(O)c4-c4cc3ccc4O)[C@H](O)c3ccc(c(Cl)c3)Oc3cc2cc(c3O[C@@H]2O[C@H](CO)[C@@H](O)[C@H](O)[C@H]2O[C@H]2C[C@](C)(N)[C@H](O)[C@H](C)O2)Oc2ccc(cc2Cl)[C@H]1O [Van, vancomycin] | 2 (≈ 1.38 µM) | 2 (≈ 1.38 µM) | 2 (≈ 1.38 µM) | 2 (≈ 1.38 µM) | 2 (≈ 1.38 µM) | 2 (≈ 1.38 µM) | 2 (≈ 1.38 µM) | 2 (≈ 1.38 µM) | 2 (≈ 1.38 µM) | 8 (≈ 5.52 µM) | 8 (≈ 5.52 µM) | 8 (≈ 5.52 µM) | 4 (≈ 2.76 µM)
